Patent US4900744A, “Antihypercholesterolemic 4,5-diaryl-2-substituted thioimidazoles” (E. I. Du Pont de Nemours and Company, priority 1988, dated 1990)

Tests used:
[1] = system: J774 cells; assay: Inhibition of Cholesterol Esterification in Mammalian Cells (macrophage-like cell line J774); format: cell-based; details: Mus musculus; murine macrophage-like cell line J774, +LDL (200 μg/ml), 14C-oleic acid incorporation into cholesteryl ester
Experimental: The esterification of cholesterol was determined in the murine macrophage-like cell line J774. J774 cells were placed in 60 mm dishes at a density of 200,000 cells per dish in 3.0 ml of Dulbecco's minimal essential medium (DMEM) containing 10% Fetal bovine serum. Cells were incubated at 37° C. in an atmosphere of 5% CO2 and 93% humidity. After 24 hr, the cells were washed with 2 ml of Hanks buffered saline and the media changed to 1.5 ml of DMEM containing 1% Cabosil® treated serum (CTS) to up-regulate LDL receptors. At 56 hr, fresh media that contained 1% CTS was added to the cells; in all but control dishes the media contained 200 μg LDL/ml to increase the intracellular concentration of cholesterol and promote esterification. At 72 hr, various inhibitors were added to the cells in DMSO (10 μl/ml maximum). At 74 hr, the cells were pulsed with 0.1 mM ^14 C-oleic acid (20,000 dpm/nmol) complexed with bovine serum albumin (BSA) to follow cholesteryl ester formation. The experiment was terminated at 76 hrs by washing the monolayers 3 times with 3 ml of Tris-buffered saline at 4° C. The lipids were extracted by incubating the monolayers with 1.5 ml of hexane: isopropanol (3:2, v/v) for 30 mins under gentle agitation. During this period, 20,000 dpm ^3 H-cholesteryl linoleate and 10 μg of cholesteryl oleate were added as an internal standard and carrier respectively. The organic solvent was removed and the cells were washed with an additional 1.0 ml of hexane: isopropanol which was combined with the original extract. The cells were allowed to dry overnight, digested with 1.5 ml of 0.2 N sodium hydroxide for 1 hr, and an aliquot of the solubilized protein used for protein determination using the Lowry method. The organic extract was taken to dryness, the residue resuspended in 100 μl of chloroform and the lipids separated on silica gel impregnated glass fiber plates using a hexane: diethyl ether: acetic acid (170:30:1, v/v/v) solvent system. The cholesteryl ester spot was visualized with iodine, cut out, and transferred to scintillation vials to determine the amount of radioactivity. The conversion of oleic acid to cholesteryl ester in the control averaged 0.54 nmol/hr/mg protein and was increased upon the addition of LDL to about 2.37 nmol/hr/mg protein. Inhibition of esterification by various compound was determined by dividing the specific activity (+LDL) in the presence of the inhibitor by the specific activity (+LDL) of the vehicle alone times 100% -100.

[2] = target: acyl-CoA:cholesterol acyltransferase (ACAT); assay: Inhibition of Acyl CoA:Cholesterol Acyltransferase (ACAT) in Hepatic Microsomes; format: biochemical, rat (male Sprague Dawley); details: rat hepatic microsomes, 75 μM 14C-oleoyl-CoA, pH 7.4, 37° C., 15 min preincubation, 10 min assay; read-out: IC50 In Vitro ACAT
Experimental: The ability of the compounds of this invention to inhibit ACAT, the enzyme responsible for the intracellular synthesis of cholesteryl esters, was tested as follows. Male Sprague Dawley rats weighing 150-300 g were fed rat chow ad libitum. The animals were fasted for twenty-four hours prior to being sacrificed by decapitation. The livers were perfused in situ with 50 ml of cold 0.25 M sucrose, excised, and homogenized in three volumes of 0.1 M phosphate buffer, pH 7.4 containing 0.5 mM EDTA (ethylenediaminetetraacetic acid), 1.0 mM glutathione, 0.25 M sucrose and 20 μM leupeptin. Microsomes were obtained by differential centrifugation; the supernatant from an initial spin at 15,000×g. for 15 minutes (which removed cell debris and mitochondria) was centrifuged at 105,000×g. for 1 hr to pellet the microsomes. The microsomes were suspended in homogenization buffer reisolated by centrifugation and stored at -70° C. Microsomes were used within one month of preparation.
The control assay in a final volume of 200 μl consisted of 200 μg of microsomal protein, 75 μM ^14 C-oleoyl-CoA (10,000 dpm/nmol) in 0.1 M phosphate, pH 7.4 containing 1 mM glutathione. Compounds were added in 5-10 μl of DMSO (dimethyl sulfoxide) and additional controls were run with DMSO only. All components, except the radiolabeled oleoyl-CoA, were preincubated for 15 min at 37° C. prior to the initiation of the reaction by addition of radiolabeled oleoyl-CoA. The assay was terminated after 10 min by the addition of 500 μl of hexane: isopropanol (3:2, v/v). 20,000 dpm of ^3 H-cholesteryl oleate and 10 μg of unlabeled cholesteryl oleate and oleic acid were added as an internal standard and carriers, respectively. After allowing 10 min for lipid extraction, the samples were centrifuged at 1,000×g for 10 mins to separate the solvent layers. 200 μl of the top (hexane) layer containing the neutral lipids was spotted onto a Baker SI250-Pa silica gel TLC plate and the plate developed using a hexane: diethyl ether: acetic acid (170:30:1 v/v/v) mobile phase. The lipids were visualized by their interaction with iodine vapor and the cholesteryl ester spot was scraped into a scintillation vial and the radioactivity on the gel was determined by standard liquid scintillation spectrometry. The specific activity of ACAT in control microsomes averaged 260 pmol/min/mg microsomal protein. The % inhibition of the various compounds was the ACAT activity in the presence of the inhibitor divided by the activity of the control (vehicle alone) times 100%-100.

IC50 [1] [µM]	IC50 [2] [µM]	SMILES
17	1	O=C(O)CCCCCCCCCCSc1nc(-c2ccccc2)c(-c2ccccc2)[nH]1 [Example 58, 11-(4,5-Diphenyl-1H-imidazol-2-ylthio)undecanoic acid]
19	2	CCOC(=O)CCCCCCCSc1nc(-c2ccccc2)c(-c2ccccc2)[nH]1 [Example 1, 8-(4,5-Diphenyl-1H-imidazol-2-ylthio)octanoic acid ethyl ester]
80	2	O=C(O)CCCCCCCSc1nc(-c2ccccc2)c(-c2ccccc2)[nH]1 [Example 57, 8-(4,5-Diphenyl-1H-imidazol-2-ylthio)octanoic acid]
78	23	O=C(O)CCCCCCCOc1nc(-c2ccccc2)c(-c2ccccc2)n1-c1ccccc1 [Octimibate, reference compound]
17	1	CCOC(=O)CCCCCCCCCCSc1nc(-c2ccccc2)c(-c2ccccc2)[nH]1 [Example 2, 11-(4,5-Diphenyl-1H-imidazol-2-ylthio)undecanoic acid ethyl ester]
